Measurements published in US7105656B2, “Compositions and methods for treating hematologic malignancies and multiple drug resistance” (The Brigham and Women's Hospital, Inc., priority 2000, dated 2006).

Experiments:
[1] = target: T1, SUMO-1 (Homo sapiens, UniProt P63165); experiment: sumo-1 antisense oligonucleotides, induction of HIF-1 in hypoxia; format: cell-based
T1 construct: endogenous in cells
Source text: Posttranslational SUMOlation influences HIF-1α regulated gene expression. In order to test that HIF-1 is SUMO-1 modified, we conducted experiments which indicated an association of HIF-1α both with endogenous as well as epitope (hexahistidine)-tagged SUMO-1 HIF-1α induction was rapid and was detected by immunopecipitating SUMO-1. To further investigate the impact of SUMOlation on HIF-1 conveyed gene expression, we designed antisense oligonucleotides AS31(SEQ ID NO: 22), AS64 (SEQ ID NO: 23), and AS617 (SEQ ID NO: 24) directed against SUMO-1. […] Thus, we were able to modify the HIF-1 conveyed hypoxia adaptive response by administration of sumo-1 antisense oligonucleotides.

[2] = system: KB cells; experiment: Multicellular spheroid model, doxorubicin toxicity by BCECF labeling; format: cell-based; conditions: doxorubicin 1 μM
Method: Multicellular spheroid model: A multicellular spheroid model was developed using KB cells grown at high density of membrane permeable supports. Briefly, KB cells in suspension were plated at high density (˜10^7 cells/cm^2) on 0.33 cm^2 collagen-coated permeable supports (Corning-Costar, Cambridge, Ma.) and allowed to grow as domes on these substrates for two weeks. Media was replaced every other day and at two weeks, multicellular spheroids were subjected to a 24 or 48 hr period of hypoxia or normoxia, in the presence or absence of the P-glycoprotein substrate doxorubicin (1 μM final concentration) (Sigma, St Louis, Mo.). At the termination of the experiment, the number of viable, intact cells was determined by measurement of the amount of esterase cleavable fluorescent marker 2′7′-bis(carboxyethyl)-5(6)-carboxyfluorescein pentaacetoxymethyl ester (BCECF-AM, 5 μM final concentration Calbiochem, San Diego, Calif.) retained over a 30 min period, a sensitive measurement cytoxicity) (Wierda et al., J. Immunol. […] Multicellular spheroids were washed three times in HBSS and fluorescence intensity was measured on a fluorescent plate reader. […]

[3] = system: mdr1 gene; experiment: Genechip expression array screen of epithelial cells for mdr1 induction; format: cell-based, human; conditions: T84 epithelial cells, exposure similar to hypoxia (6 and 18 hrs)
Method: Analysis of messenger RNA levels by RT-PCR: The transcriptional profile of epithelial cells exposed to ambient hypoxia was assessed in RNA derived from control or hypoxic epithelia (T84 cells at 6 or 18 hr hypoxia) using quantitative genechip expression arrays (Affymetrix, Inc., Santa Clara, Calif.) (Lockhart et al., Nat. Biotechnol., 14, 1675–1680, 1996). RT-PCR analysis of mRNA levels was performed using DNAse treated total RNA as previously described (Taylor et al., J. Biol. Chem., 274, 19447–19450, 1999) using primers specific for mdr1 (forward primer 5′-AACGGAAGCCAGAACATTCC-3′ (SEQ ID NO: 37) and reverse primer 5′-AGGCTTCCTGTGGCAAAGAG-3′ (SEQ ID NO: 38), 180 bp fragment), HIF-1α (forward primer 5′- CTCAAAGTCGGACAGCCTCA-3′ (SEQ ID NO: 39) and reverse primer 5′-CCCTGCAGTAGGTTTCTGCT -3′ (SEQ ID NO: 40), 460 bp fragment) or control β-actin (forward primer 5′-ATGACTTCCAAGCTGGCCGTGGCT-3′ (SEQ ID NO: 41) and antisense primer 5′-TCTCAGCCCTCTTCAAAAACTTCTC-3′ (SEQ ID NO: 42), 661 bp fragment). Each primer set was amplified using 25 cycles, unless otherwise noted, of 94° C. for 1 min, 60° C. for 2 min, 72° C. for 4 min, and a final extension of […] for 7 min. The PCR reactions were then visualized on a 1.5% agarose gel containing 5 μg/ml of ethidium bromide. […]

T1 sequence (P63165 1-97 limits assumed): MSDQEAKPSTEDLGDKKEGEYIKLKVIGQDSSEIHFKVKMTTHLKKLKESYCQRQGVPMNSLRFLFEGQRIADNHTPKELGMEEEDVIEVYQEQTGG

Molecule | induction of HIF-1 in hypoxia [1] | also measured
AS617: antisense oligonucleotide directed against SUMO-1 (antisense GTGACCTCTCTGTGCACACG; listed as DNA, chemistry not given here) | able to modify the induction of HIF-1 in hypoxia | –
COc1cccc2c1C(=O)c1c(O)c3c(c(O)c1C2=O)C[C@@](O)(C(=O)CO)C[C@@H]3O[C@H]1C[C@H](N)[C@H](O)[C@H](C)O1 [doxorubicin] | – | degree of cell death (number of intact cells, BCECF labeling) ([2]; 24 hr hypoxia vs normoxia, p<0.01): significantly decreased; degree of cell death (number of intact cells, BCECF labeling) ([2]; 48 hr hypoxia vs normoxia, p<0.001): significantly decreased
AS31: antisense oligonucleotide directed against SUMO-1 (antisense CACAGCAGCGGCCTCGGGTA; chemistry not given here) | able to modify the induction of HIF-1 in hypoxia | –
AS64: antisense oligonucleotide directed against SUMO-1 (antisense CATGATGACGGTGGCTTCAC; listed as DNA, chemistry not given here) | able to modify the induction of HIF-1 in hypoxia | –
IFN-γ: proinflammatory cytokine (protein, UniProt P01579 24-161, looked up) Interferon gamma: QDPYVKEAENLKKYFNAGHSDVADNGTLFLGILKNWKEESDRKIMQSQIVSFYFKLFKNFKDDQSIQKSVETIKEDMNVKFFNSNKKKRDDFEKLTNYSVTDLNVQRKAIHELIQVMAELSPAAKTGKRKRSQMLFRG | – | induction of mdr1 [3]: did not induce mdr1
